# Tested on: E coli B44 (09:K90:K99)
# Test: Protection of Neonatal Mice from Lethal Enteropathogenic E coli Infection
# Type: in vivo
# Details: 4 day old mice, % reduction in mortality vs placebo, 10 days; for inhibition in vivo at 0.08 mg/kg: 0.08 mg/kg (dose of hydrochloride salt) b.i.d. for four days commencing 16 hours after infection; for inhibition in vivo at 0.4 mg/kg: 0.4 mg/kg (dose of hydrochloride salt) b.i.d. for four days commencing 16 hours after infection; for inhibition in vivo at 2 mg/kg: 2 mg/kg (dose of hydrochloride salt) b.i.d. for four days commencing 16 hours after infection; for Protection %: Table 2, 10 mg/kg (dose of hydrochloride salt) b.i.d. for four days commencing 16 hours after infection
# Method: 4 day old mice were dosed orally with 50µl of phosphate buffered saline containing 1 x 10^5 organisms/ml of E coli B44 (09:K90:K99) an enteropathogenic strain originally isolated from a scouring calf. The mice were then dosed b.i.d. with either placebo or drug as the hydrochloride salt for four days commencing 16 hours after infection. The animals were left with their mothers throughout the experiment and a daily record of deaths were made. The experiment was terminated 10 days after infection of the mice.
# The mortality in the drug group was then compared with the mortality in the placebo group using the following formula:- [formula] where Mp = mortality in group receiving placebo Md = mortality in group receiving drug
# Statistical analysis was performed using 2 x 2 contingency tables (single tailed 'p'). Results are given in Tables 1 and 2. 'Protection %' is the same as '% Reduction in mortality' above.
# [1] = Mus musculus, intraduodenal, 240 h, Table 1
SMILES,inhibition in vivo at 0.08 mg/kg [1] [%],inhibition in vivo at 0.4 mg/kg [1] [%],inhibition in vivo at 2 mg/kg [1] [%],also measured
CN=C(Nc1cc(Cl)c(N=C2NCCN2)c(Cl)c1)SC,22,26,13,
S=C(Nc1cc(Cl)c(N=C2NCCN2)c(Cl)c1)NC1CCCCC1,6,,,
CSC(=Nc1cc(Cl)c(N=C2NCCN2)c(Cl)c1)N(C)C,13,,,
S=C(NCc1ccccc1)Nc1cc(Cl)c(N=C2NCCN2)c(Cl)c1,,21,,
CNC(=S)Nc1cc(C)c(N=C2NCCN2)c(C)c1,,43,69,
CSC(=NCc1ccc(F)cc1)Nc1cc(Cl)c(N=C2NCCN2)c(Cl)c1,29,,,"inhibition in vivo at 0.04 mg/kg (Mus musculus, intraduodenal, 240 h, Table 1, 0.04 mg/kg (dose of hydrochloride salt) b.i.d. for four days commencing 16 hours after infection): 40%"
CN=C(Nc1ccc(C)c(N=C2NCCN2)c1)SC,,,,Protection %: 13%
Cc1cc(NC(=S)NCc2ccc(F)cc2)cc(C)c1N=C1NCCN1,,,11,
CNC(=S)Nc1cc(Cl)c(N=C2NCCN2)c(Cl)c1,6,6,,
CNC(=S)Nc1ccc(C)c(N=C2NCCN2)c1,,,,Protection %: 5%

# From EP0149140A2, “Novel compounds” (BEECHAM GROUP PLC, priority 1983, dated 1985)
